Experimental findings from US6384056B1, “Heterocyclic thioesters or ketones for vision and memory disorders” (GPI NIL Holdings, Inc., priority 1998, dated 2002) are described below.

Sequence of FKBP12 (P62942 whole entry, species assumed): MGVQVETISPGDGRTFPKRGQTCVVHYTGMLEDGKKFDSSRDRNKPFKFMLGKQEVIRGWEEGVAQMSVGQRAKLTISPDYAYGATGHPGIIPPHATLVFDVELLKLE

For one data set, the system named is retinal ganglion cell axons. The data set can be described thus: protection of retinal ganglion cell axons from degeneration 14 days after optic nerve transection (RT97). The following applies: ± SEM. In kind it is in vivo. An excerpt: Efficacy of represetative compounds from different immunophilin ligand series in protecting retinal ganglion cell axons from degeneration following optic nerve transection set forth in Table 9.
Efficacy of representative compounds from different immunophilin ligand series in protecting retinal ganglion cell axons from degeneration following optic nerve transection
For `O=C(OCCCc1ccccc1)[C@@H]1CCCCN1S(=O)(=O)Cc1ccccc1` [D], the “RT 97 + RGC axon density 14 days after ON transaction (36 ON axons rescued)” value (“RT 97 + RGC axon density 14 days” for short) was 58.4% ±6.4% SEM.
Still for that read-out and setting: the same measure for `O=C(SCCCc1ccccc1)[C@@H]1CCCN1C(=O)NC12CC3CC(CC(C3)C1)C2` [B]: 100.0% ±5.2% SEM; for `CCC(C)(C)C(=O)C(=O)N1CCCC[C@H]1C(=O)OC(CCc1ccccc1)CCc1ccccc1` [E]: 56.6% ±9.4% SEM; for `CCC(C)(C)C(=O)C(=O)N1CCC[C@H]1C(=O)SCCC(c1ccccc1)c1ccccc1` [M]: −6.3% +3.9% SEM.
Still for that read-out and setting: the same measure for `CCC(C)(C)C(=O)C(=O)N1CCCC[C@H]1C(=O)O` [G]: 34.0% ±4.8% SEM; for `O=C(OCCCc1cccnc1)[C@@H]1CCCN1C(=S)NC1CCCCC1` [I]: 23.8% ±5.3 SEM; for `CCC(C)(C)C(=O)C(=O)N1CCC[C@H]1C(=O)CCCCc1cccnc1` [J]: 15.8% ±4.8% SEM.
On the same count and under the same terms, the same measure for `O=C(SCCCc1ccccc1)[C@@H]1CCCN1S(=O)(=O)Cc1ccccc1` [C]: 60.4% ±3.1% SEM.
On to `CCC(C)(C)C(=O)C(=O)N1CCC[C@H]1C(=O)O` [L], for which the “RT 97 + RGC axon density 14 days” value is 7.8% ±3.0% SEM.
With `CCC(C)(C)C(=O)C(=O)N1CCS[C@H]1C(=O)OCCCc1cccnc1` [F], the “RT 97 + RGC axon density 14 days” value was 55.1% ±5.9% SEM.
Same read-out and setting: the same measure for `CCC(C)(C)C(=O)C(=O)N1CCCC[C@H]1C(N)=O` [H]: 30.3% ±8.0% SEM.
Still for that read-out and setting: the result for `CCC(C)(C)C(=O)C(=O)N1CCCC[C@H]1C(=O)SCCC(c1ccccc1)c1ccccc1` [K] reads 13.0% ±4.2% SEM.

The target in another data set is FKBP12 (Homo sapiens, UniProt P62942). Kind of data set: Ki test procedure: inhibition of peptidyl-prolyl isomerase (rotamase) activity, chymotrypsin-coupled assay. The data set is classed as biochemical. The following applies: apparent Ki. An excerpt:
The inhibition of the prolyl peptidyl cis-trans isomerase activity of FKBP may be measured as an indicator of this affinity.
Inhibition of the peptidyl-prolyl isomerase (rotamase) activity of the compounds used in the inventive methods and pharmaceutical compositions can be evaluated by known methods described in the literature (Harding et al., Nature, 1989, 341:758-760; Holt et al. J. Am. Chem. Soc., 115:9923-9938).
The cis-trans isomerization of an alanine-proline bond in a model substrate, N-succinyl-Ala-Ala-Pro-Phe-p-nitroanilide, is monitored spectrophotometrically in a chymotrypsin-coupled assay, which releases para-nitroanilide from the trans form of the substrate. The inhibition of this reaction caused by the addition of different concentrations of inhibitor is determined, and the data is analyzed as a change in first-order rate constant as a function of inhibitor concentration to yield the apparent Ki values.
In a plastic cuvette are added […] of ice cold assay buffer (25 mM HEPES, pH 7.8, 100 mM NaCl), […] of FKBP (2.5 mM in 10 mM Tris-Cl pH 7.5, 100 mM NaCl, 1 mM dithiothreitol), […] of chymotrypsin (50 mg/ml in 1 mM HCl) and […] of test compound at various concentrations in dimethyl sulfoxide. The reaction is initiated by the addition of 5 mL of substrate (succinyl-Ala-Phe-Pro-Phe-para-nitroanilide 5 mg/mL in 2.35 mM LiCl in trifluoroethanol).
The absorbance at 390 nm versus time is monitored for 90 seconds using a spectrophotometer and the rate constants are determined from the absorbance versus time data files.
With “3-(2-Chlorophenyl)propyl (2S)-1-(3,3-dimethyl-2-oxopentanoyl)-2-pyrrolidinecarbothioate [Compound 61]”, the Ki was 139 nM.
Still for that read-out and setting: the result for “3-(3-Fluorophenyl)propyl (2S)-1-(3,3-dimethyl-2-oxopentanoyl)-2-pyrrolidinecarbothioate [Compound 58]” reads 79 nM; that for “3-Phenyl-1-propyl 1-(3,3-dimethyl-1,2-dioxobutyl)-2-piperidinecarbothioate [Compound 29]”, 59 nM; that for “3-(para-Methoxyphenyl)-1-propyl 1-(2-phenyl-1,2-dioxoethyl)piperidine-2-carbothioate [Compound 43]”, 259 nM.
In the case of “1,5-Diphenyl-3-pentyl 1-(3,3-dimethyl-1,2-dioxopentyl)-2-piperidinecarbothioate [Compound 40]”, the Ki was 1230 nM.
On the same count and under the same terms, the same measure for “4-Phenyl-1-butyl (2S)-1-(2-cyclohexyl-1,2-dioxoethyl)-2-pyrrolidinecarbothioate [Compound 33]”: 1700 nM; for “2-Phenyl-1-ethyl 1-(2-phenyl-1,2-dioxoethyl)-2-piperidinecarbothioate [Compound 14]”: 313 nM; for “3-(3-Chlorophenyl)propyl (2S)-1-(3,3-dimethyl-2-oxopentanoyl)-2-pyrrolidinecarbothioate [Compound 54]”: 37 nM.
For “4,4-Di(para-fluorophenyl)butyl 1-(3,3-dimethyl-2-oxopentanoyl)-2-pyrrolidinecarbothioate [Compound 46]”, the Ki was 757 nM.
Same read-out and setting: the result for “2-Phenyl-1-ethyl (2S)-1-(2-cyclohexyl-1,2-dioxoethyl)-2-pyrrolidinecarbothioate [Compound 12]” reads 442 nM; that for “3-(2-Fluorophenyl)propyl (2S)-1-(3,3-dimethyl-2-oxopentanoyl)-2-pyrrolidinecarbothioate [Compound 57]”, 57 nM.
Same read-out and setting: the result for `CCC(C)(C)C(=O)C(=O)N1CCCC1C(=O)SCc1csc2ccccc12` (stereo not shown) [Compound 11] reads 299 nM; that for `CC(C)(C)C(=O)C(=O)N1CCC[C@H]1C(=O)CCCCc1ccccc1` [Compound 3, (2S)-2-(1-oxo-5-phenyl)-pentyl-1-(3,3-dimethyl-1,2-dioxobutyl)pyrrolidine], 85 nM; that for “4-Phenyl-1-butyl (2S)-1-(3,3-dimethyl-1,2-dioxopentyl)-2-pyrrolidinecarbothioate [Compound 34]”, 34 nM.
Same read-out and setting: the same measure for “3-(1-Naphthyl)-1-propyl (2S)-1-(3,3-dimethyl-2-oxopentanoyl)-2-pyrrolidinecarbothioate [Compound 47]”: 21 nM; for “3-(1-Naphthyl)-1-propyl 1-(3,3-dimethyl-2-oxopentanoyl)-2-piperidinecarbothioate [Compound 53]”: 261 nM; for “2-Phenyl-1-ethyl 1-(3,3-dimethyl-1,2-dioxopentyl)-2-piperidinecarbothioate [Compound 10]”: 12 nM.
In the case of “2-Phenyl-1-ethyl (2S)-1-(1-cyclopentyl-1,2-dioxoethyl)-2-pyrrolidinecarbothioate [Compound 28]”, the Ki amounted to 108 nM.
The same measure, in the same setting: the result for “3-Phenylpropyl 1-(3,3-dimethyl-2-oxopentanoyl)-2-piperidinecarbothioate [Compound 60]” reads 90 nM; that for `CCC(C)(C)C(=O)C(=O)N1CCC[C@H]1C(=O)CCCCc1ccccc1` [Compound 1, (2S)-3,3-dimethyl-1-[2-(5-phenylpentanoyl)pyrrolidinyl]pentane-1,2-dione], 31 nM.
Same read-out and setting: the same measure for “3-Phenyl-1-propyl (2S)-1-(2-cyclohexyl-1,2-dioxoethyl)-2-pyrrolidinecarbothioate [Compound 32]”: 362 nM; for “4-Phenylbutyl 1-(3,3-dimethyl-2-oxopentanoyl)-2-piperidinecarbothioate [Compound 59]”: 962 nM.
The same measure, in the same setting: the result for “4-Phenyl-1-butyl 1-(1,2-dioxo-3,3-dimethylbutyl)-2-piperidinecarbothioate [Compound 39]” reads 347 nM; that for `CCC(C)(C)C(=O)C(=O)N1CCCC[C@H]1C(=O)SCC(c1ccccc1)c1ccccc1` [Compound 49, 2,2-Diphenylethyl (2S)-1-(3,3-dimethyl-2-oxopentanoyl)-2-piperidinecarbothicate], 1330 nM.
As for “3-(3-Fluorophenyl)propyl 1-(3,3-dimethyl-2-oxopentanoyl)-2-piperidinecarbothioate [Compound 64]”, the Ki amounted to 163 nM.
Same read-out and setting: the result for “3-(3-Pyridyl)-1-propyl (2S)-1-(2-cyclohexyl-1,2-dioxoethyl)-2-pyrrolidinecarbothioate [Compound 35]” reads 62 nM.

Tested on in the next data set: not listed separately
Kind of data set: Clearance. In kind it is in vitro ADME. The following applies: Table 9 comments.
The molecule `CCC(C)(C)C(=O)C(=O)N1CCCC[C@H]1C(=O)OC(CCc1ccccc1)CCc1ccccc1` [E] displayed a Clearance of 41.8 µL/min.
The same measure, in the same setting: the same measure for `CCC(C)(C)C(=O)C(=O)N1CCC[C@H]1C(=O)SCCC(c1ccccc1)c1ccccc1` [M]: 12.5 µL/min; for `O=C(OCCCc1cccnc1)[C@@H]1CCCN1C(=S)NC1CCCCC1` [I]: 8.0 µL/min.
The same measure, in the same setting: the same measure for `CCC(C)(C)C(=O)C(=O)N1CCC[C@H]1C(=O)CCCCc1cccnc1` [J]: 1.5 µL/min.
Same read-out and setting: the result for `O=C(SCCCc1ccccc1)[C@@H]1CCCN1S(=O)(=O)Cc1ccccc1` [C] reads 31.1 µL/min; that for `CCC(C)(C)C(=O)C(=O)N1CCC[C@H]1C(=O)O` [L], 5.2 µL/min; that for `CN(C)C(=O)N1CCC[C@H]1C(=O)SCCCc1ccccc1` [N], 21.9 µL/min.
As for `CCC(C)(C)C(=O)C(=O)N1CCCC[C@H]1C(=O)SCCC(c1ccccc1)c1ccccc1` [K], the Clearance is 4.5 µL/min.
